# Laboratory results reported in patent US12678453B2, “Aerosolized formulations of HIV protease inhibitors for the treatment of airway reflux” (The Medical College of Wisconsin, Inc., priority 2020, dated 2026).
# Molecular target: T1, porcine pepsin A (Sus scrofa, UniProt P00791)
# T1 construct: purchased Worthington Biochemical Corporation
# Assay: co-crystallization of inhibitors with pepsin
# Format: binding
# Settings: crystal structures of porcine pepsin complexes
# Method: Lyophilized porcine pepsin A (Worthington Biochemical Corporation) was dissolved in water at 200 mg/mL. All ligand stock solutions, except for saquinavir mesylate, were prepared as saturated solutions in DMSO in order to dissolve the maximal amount of ligand. The solutions were centrifuged and an appropriate volume of the supernatant was added to the pepsin solution so that final mixture contained 1.6% of the ligand stock by volume. The mixtures were incubated at room temperature for 1 h, centrifuged for 10 min at 31,000 rcf, and the supernatant was used for crystallization experiments. […] In order to maximize the solubility of saquinavir in the crystallization solution, we tested solutions from the CryoSol screen (Molecular Dimensions) (PMID 28626721). Mixture SM2 consisting of 37.5% v/v dioxane, 25% v/v DMSO, 12.5% v/v ethylene glycol, 12.5% v/v 1,2-propanediol, and 12.5% v/v glycerol allowed us to increase the amount of ligand solution in the co-crystallization mixture without damaging the protein. The saturated solution of saquinavir in SM2 was treated in the same manner as solutions of other ligands except that its amount in the solution with pepsin was increased to 5% by volume.
# The initial crystallization condition was identified by screening 200 mg/mL ligand-free porcine pepsin against the Salt RX screen (Hampton Research). Small bipyramid-shaped crystals were obtained in 3.5 M ammonium chloride and 0.1 M sodium acetate trihydrate pH 4.6 after 1 week of incubation at room temperature. […] Diffraction quality crystals formed after 2-7 days from hanging drops containing 2 μL of pepsin at concentrations of 180-210 mg/mL and 1 μL of a microseed solution serially diluted 10-100× above a well solution containing 3 M-4 M ammonium chloride and 0.1 M sodium acetate trihydrate pH 4.6. The crystals were shaped as triangular bi-pyramids with dimensions approximately 200×100×100 μm. Crystals were cryoprotected by soaking them in 30% w/v glucose, 5 M ammonium chloride and 0.1 M sodium acetate trihydrate pH 4.6 and then plunging them in liquid nitrogen.
# The complex with saquinavir was crystallized in the same manner except that we used 0.1 M acetic acid instead of 0.1 M sodium acetate trihydrate pH 4.6 because this change allowed us to grow large crystals without the need for a microseeding solution. Cryoprotection was accomplished using 30% w/v glucose, 3 M ammonium chloride and 0.1 M acetic acid, followed by plunging in liquid nitrogen.
# Pepsin·APV: A 1.9 Å diffraction data set was collected at the Life Sciences Collaborative Access Team beamline (LS-CAT) 21-ID-F at the Advanced Photon Source (APS) equipped with a MAR 300 CCD detector using a 50×50 μm beam at a wavelength of 0.97872 Å. […]
# T1 sequence (P00791 60-385): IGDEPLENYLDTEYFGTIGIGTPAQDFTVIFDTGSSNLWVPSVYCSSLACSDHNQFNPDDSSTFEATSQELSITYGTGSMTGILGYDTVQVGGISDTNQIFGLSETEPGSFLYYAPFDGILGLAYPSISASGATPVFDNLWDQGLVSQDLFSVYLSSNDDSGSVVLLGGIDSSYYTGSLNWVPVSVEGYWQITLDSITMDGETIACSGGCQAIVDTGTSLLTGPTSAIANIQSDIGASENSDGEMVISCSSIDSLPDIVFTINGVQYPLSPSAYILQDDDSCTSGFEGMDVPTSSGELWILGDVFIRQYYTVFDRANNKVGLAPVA
row,binding at the active site of pepsin by co-crystallization,Structure (SMILES)
1,bind in the pepsin active site,"CC(C)CN(C[C@@H](O)[C@H](Cc1ccccc1)NC(=O)O[C@H]1CCOC1)S(=O)(=O)c1ccc(N)cc1 [amprenavir, [(3S)-oxolan-3-yl] N-[(2S,3R)-4-[(4-aminophenyl)sulfonyl-(2-methylpropyl)amino]-3-hydroxy-1-phenylbutan-2-yl]carbamate]"
2,bind at the active site of pepsin,"CC(C)c1nc(CN(C)C(=O)N[C@H](C(=O)N[C@@H](Cc2ccccc2)C[C@H](O)[C@H](Cc2ccccc2)NC(=O)OCc2cncs2)C(C)C)cs1 [ritonavir, 1,3-thiazol-5-ylmethyl N-[(2S,3 S,5S)-3-hydroxy-5-[[(2S)-3-methyl-2-[[methyl-[(2-propan-2-yl-1,3-thiazol-4-yl)methyl]carbamoyl]amino]butanoyl]amino]-1,6-diphenylhexan-2-yl]carbamate]"
3,bind at the active site of pepsin,"CC(C)(C)NC(=O)[C@@H]1C[C@@H]2CCCC[C@@H]2CN1C[C@@H](O)[C@H](Cc1ccccc1)NC(=O)[C@H](CC(N)=O)NC(=O)c1ccc2ccccc2n1 [saquinavir, (2S)—N-[(2S,3R)-4-[(3 S,4aS,8aS)-3-(tert-butylcarbamoyl)-3,4,4a,5,6,7,8,8a-octahydro-1H-isoquinolin-2-yl]-3-hydroxy-1-phenylbutan-2-yl]-2-(quinoline-2-carbonylamino)butanediamide]"

row,Structure (SMILES),binding at the active site of pepsin by co-crystallization
1,"CC(C)CN(C[C@@H](O)[C@H](Cc1ccccc1)NC(=O)O[C@H]1CO[C@H]2OCC[C@H]21)S(=O)(=O)c1ccc(N)cc1 [darunavir, [(3a S,4R,6aR)-2,3,3a,4,5,6a-hexahydrofuro[2,3-b]furan-4-yl] N-[(2S,3R)-4-[(4-aminophenyl)sulfonyl-(2-methylpropyl)amino]-3-hydroxy-1-phenylbutan-2-yl]carbamate]",bind at the active site of pepsin
